Results taken from patent publication US10472356B2, “Bicyclic ketone sulfonamide compounds” (AMGEN INC., priority 2015, dated 2019).

How the values were obtained:
Assay type in all cases: cell-based
human Nav1.7 [1] = target: T1, human Nav1.7 (Homo sapiens, UniProt Q15858); assay: Nav 1.7 In Vitro PatchXpress (PX) Assay; settings: HEK 293 cells stably transfected with human Nav1.7; PatchXpress whole cell voltage clamp; partially inactivated state (holding potential yielding 20 to 50% inactivation); read-out: hNav1.7 PX IC50
T1 construct: expressed in transfected cells; host or cells: HEK293
How it was run: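 Whole-cell voltage clamp on HEK 293 cells stably expressing human Nav1.7 (automated patch), holding potential giving 20–50% inactivation; 20 ms pulses to −10 mV at 0.1 Hz. Single compound concentration applied 3 min, peak current inhibition measured; IC50 fitted from 3–5 cells per concentration.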

human Nav1.7 [2] = target: T1, human Nav1.7; assay: Nav 1.7 IWQ In Vitro Assay (IonWorks Quattro); settings: HEK293 cells stably transfected with human Nav 1.7; IonWorks Quattro population patch-clamp; 26th pulse to −20 mV, 5 Hz; cells unclamped 5 to 8 minutes with compound; read-out: hNav1.7 IWQ IC50
Procedure: Nav 1.7 or Nav 1.5 IWQ In Vitro Assay
HEK293 cells stably transfected with either human Nav 1.7 or human Nav 1.5 were recorded in population patch-clamp mode with the IonWorks® Quattro automated electrophysiology system (Molecular Devices, LLC, Sunnyvale, Calif.). Cells were voltage clamped to −110 mV for three seconds (Nav 1.7) or half a second (Nav 1.5) and sodium currents were elicited by a train of 26 depolarizations of 150 msec duration to −20 mV (Nav 1.7) or 0 mV (Nav 1.5) at a frequency of 5 Hz. Cells were then left unclamped for a period of 5 to 8 minutes while a single concentration of test compound was added. Following this compound incubation period, cells were then reclamped to −110 mV for three seconds (Nav1.7) or half a second (Nav1.5) to recover unbound channels and put through the same 26 pulse voltage protocol as above. Peak inward current during the 26th pulse to −20 mV (Nav 1.7) or 0 mV (Nav 1.5) in the presence of compound was divided by the peak inward current evoked by the 26th pulse to −20 mV (Nav1.7) or 0 mV (Nav1.5) in the absence of compound to determine percent inhibition. Concentration-response curves of percent.

human Nav1.7 [3] = target: T1, human Nav1.7; assay: Nav 1.7 IWB In Vitro Assay (IonWorks Barracuda); settings: HEK293 cells stably transfected with human Nav 1.7; IonWorks Barracuda population patch-clamp; cells clamped to −20 mV for 4 minutes with compound; 26th pulse; read-out: hNav1.7 IWB IC50
How it was run: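 Population patch clamp of HEK293 cells stably expressing human Nav 1.7: 26 pulses to −20 mV (150 ms, 5 Hz) from −110 mV, then 4 min at −20 mV with compound, 3 s recovery at −110 mV and the train repeated. % inhibition of 26th-pulse peak current vs no compound; IC50 from concentration-response curves.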

T1 sequence (Q15858 whole entry): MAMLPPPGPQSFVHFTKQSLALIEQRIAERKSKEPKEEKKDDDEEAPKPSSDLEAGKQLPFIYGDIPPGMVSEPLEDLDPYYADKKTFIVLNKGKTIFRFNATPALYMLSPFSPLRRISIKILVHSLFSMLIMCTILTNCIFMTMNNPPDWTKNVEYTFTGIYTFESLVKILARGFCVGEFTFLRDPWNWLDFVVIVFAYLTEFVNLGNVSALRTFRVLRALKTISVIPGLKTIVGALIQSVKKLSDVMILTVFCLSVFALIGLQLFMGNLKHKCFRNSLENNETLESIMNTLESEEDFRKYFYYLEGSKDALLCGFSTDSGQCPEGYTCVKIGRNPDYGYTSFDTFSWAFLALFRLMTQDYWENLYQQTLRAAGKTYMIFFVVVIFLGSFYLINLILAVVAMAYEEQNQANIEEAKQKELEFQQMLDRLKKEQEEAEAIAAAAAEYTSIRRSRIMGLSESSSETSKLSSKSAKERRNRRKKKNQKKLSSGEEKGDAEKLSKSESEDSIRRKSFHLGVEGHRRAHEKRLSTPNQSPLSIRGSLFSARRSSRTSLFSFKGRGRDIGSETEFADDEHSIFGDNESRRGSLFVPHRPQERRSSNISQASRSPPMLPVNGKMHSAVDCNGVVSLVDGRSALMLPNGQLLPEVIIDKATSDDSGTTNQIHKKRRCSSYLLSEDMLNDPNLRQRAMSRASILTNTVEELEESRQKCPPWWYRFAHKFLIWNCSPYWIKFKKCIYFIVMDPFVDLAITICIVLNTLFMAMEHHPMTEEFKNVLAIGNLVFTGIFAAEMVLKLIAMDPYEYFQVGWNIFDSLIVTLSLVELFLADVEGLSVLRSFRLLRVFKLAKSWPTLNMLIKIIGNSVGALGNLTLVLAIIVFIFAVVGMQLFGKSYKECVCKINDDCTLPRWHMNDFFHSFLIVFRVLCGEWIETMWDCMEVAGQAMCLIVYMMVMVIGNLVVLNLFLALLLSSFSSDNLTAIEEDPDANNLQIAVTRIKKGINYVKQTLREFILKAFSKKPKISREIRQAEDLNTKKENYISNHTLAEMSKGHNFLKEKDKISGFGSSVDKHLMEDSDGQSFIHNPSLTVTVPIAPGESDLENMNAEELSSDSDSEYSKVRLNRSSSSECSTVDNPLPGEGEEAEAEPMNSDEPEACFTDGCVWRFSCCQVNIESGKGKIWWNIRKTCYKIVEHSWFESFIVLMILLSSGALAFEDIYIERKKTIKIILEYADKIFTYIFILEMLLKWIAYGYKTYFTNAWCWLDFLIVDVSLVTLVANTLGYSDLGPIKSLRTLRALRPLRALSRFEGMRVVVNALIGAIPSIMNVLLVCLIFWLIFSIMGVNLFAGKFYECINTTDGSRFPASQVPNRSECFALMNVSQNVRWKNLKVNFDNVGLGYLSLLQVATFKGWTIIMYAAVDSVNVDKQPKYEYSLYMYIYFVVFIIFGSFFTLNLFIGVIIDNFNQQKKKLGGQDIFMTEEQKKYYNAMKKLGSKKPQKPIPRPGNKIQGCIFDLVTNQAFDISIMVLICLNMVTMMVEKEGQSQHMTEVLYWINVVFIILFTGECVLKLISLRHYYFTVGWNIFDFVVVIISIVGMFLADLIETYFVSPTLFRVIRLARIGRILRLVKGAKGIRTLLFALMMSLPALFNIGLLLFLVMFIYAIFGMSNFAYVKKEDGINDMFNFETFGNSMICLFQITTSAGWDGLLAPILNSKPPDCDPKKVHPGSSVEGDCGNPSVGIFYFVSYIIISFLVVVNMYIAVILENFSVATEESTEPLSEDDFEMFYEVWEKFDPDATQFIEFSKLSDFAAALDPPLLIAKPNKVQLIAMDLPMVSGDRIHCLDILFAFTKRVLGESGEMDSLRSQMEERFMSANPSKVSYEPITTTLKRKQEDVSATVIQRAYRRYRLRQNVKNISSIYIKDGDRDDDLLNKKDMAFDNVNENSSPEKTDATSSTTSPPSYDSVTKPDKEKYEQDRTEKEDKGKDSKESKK

IC50 (human Nav1.7 [1])	IC50 (human Nav1.7 [2])	IC50 (human Nav1.7 [3])	Structure (SMILES)
54.6 nM	7.3 nM	6.7 nM	COc1cc(-c2cc(F)cc(Cl)c2)c(F)cc1-n1c2c(ccc1=O)CN(S(=O)(=O)Nc1ncns1)CC2 (racemic) [5-(Rac), (Rac)-1-(3′-chloro-2,5′-difluoro-5-methoxy-4-biphenylyl)-2-oxo-N-1,2,4-thiadiazol-5-yl-1,5,7,8-tetrahydro-1,6-naphthyridine-6(2H)-sulfonamide]
30.7 nM	4.6 nM	5.4 nM	COc1cc(-c2cc(Cl)ccc2C)c(F)cc1-n1c2c(ccc1=O)CN(S(=O)(=O)Nc1ccon1)CC2 (racemic) [9-(Rac), (Rac)-1-(5′-chloro-2-fluoro-5-methoxy-2′-methyl-4-biphenylyl)-N-3-isoxazolyl-2-oxo-1,5,7,8-tetrahydro-1,6-naphthyridine-6(2H)-sulfonamide]
106 nM	81.5 nM	91.3 nM	COc1cc(-c2cc(F)cc(Cl)c2)c(F)cc1-n1c2c(ccc1=O)CN(S(=O)(=O)Nc1ccc(F)cn1)CC2 (racemic) [Example 12-(Rac), (Rac)-1-(3′-chloro-2,5′-difluoro-5-methoxy-4-biphenylyl)-N-(5-fluoro-2-pyridinyl)-2-oxo-1,5,7,8-tetrahydro-1,6-naphthyridine-6(2H)-sulfonamide]
123 nM	33.2 nM	27.6 nM	COc1cc(-c2cc(F)cc(Cl)c2)c(F)cc1-n1c2c(ccc1=O)CN(S(=O)(=O)Nc1cccc(F)n1)CC2 (racemic) [Example 13-(Rac), (Rac)-1-(3′-chloro-2,5′-difluoro-5-methoxy-4-biphenylyl)-N-(6-fluoro-2-pyridinyl)-2-oxo-1,5,7,8-tetrahydro-1,6-naphthyridine-6(2H)-sulfonamide]
74.2 nM	44.4 nM	25.6 nM	COc1cc(-c2cc(F)cc(F)c2)c(F)cc1-n1c2c(ccc1=O)CN(S(=O)(=O)Nc1cccc(F)n1)CC2 (racemic) [Example 14-(Rac), (Rac)-N-(6-fluoro-2-pyridinyl)-2-oxo-1-(2,3′,5′-trifluoro-5-methoxy-4-biphenylyl)-1,5,7,8-tetrahydro-1,6-naphthyridine-6(2H)-sulfonamide]
21.8 nM	121 nM	8.1 nM	COc1cc(-c2cc(OC)c(-n3c4c(ccc3=O)CN(S(=O)(=O)Nc3ccon3)CC4)cc2F)ccc1Cl (racemic) [Example 15-(Rac), (Rac)-1-(4′-chloro-2-fluoro-3′,5-dimethoxy-4-biphenylyl)-N-3-isoxazolyl-2-oxo-1,5,7,8-tetrahydro-1,6-naphthyridine-6(2H)-sulfonamide]
38.8 nM	4.7 nM	5.3 nM	COc1cc(-c2cccc(C(F)(F)F)c2)c(F)cc1-n1c2c(ccc1=O)CN(S(=O)(=O)Nc1ccon1)CC2 (racemic) [Example 16-(Rac), (Rac)-1-(2-fluoro-5-methoxy-3′-(trifluoromethyl)-4-biphenylyl)-N-3-isoxazolyl-2-oxo-1,5,7,8-tetrahydro-1,6-naphthyridine-6(2H)-sulfonamide]
39.9 nM	4.3 nM	6.9 nM	COc1cc(-c2cc(F)cc(Cl)c2)c(F)cc1-n1c2c(ccc1=O)CN(S(=O)(=O)Nc1ccon1)CC2 (racemic) [Example 18-(Rac), (Rac)-1-(3′-chloro-2,5′-difluoro-5-methoxy-4-biphenylyl)-N-3-isoxazolyl-2-oxo-1,5,7,8-tetrahydro-1,6-naphthyridine-6(2H)-sulfonamide]
117 nM	5.5 nM	15.6 nM	COc1cc(-c2cccc(OC(F)F)c2)c(F)cc1-n1c2c(ccc1=O)CN(S(=O)(=O)Nc1ccon1)CC2 (racemic) [Example 19-(Rac), (Rac)-1-(3′-(difluoromethoxy)-2-fluoro-5-methoxy-4-biphenylyl)-N-3-isoxazolyl-2-oxo-1,5,7,8-tetrahydro-1,6-naphthyridine-6(2H)-sulfonamide]
159 nM	6.7 nM	31.5 nM	COc1cc(-c2ccc(F)c(F)c2)c(F)cc1-n1c2c(ccc1=O)CN(S(=O)(=O)Nc1ccon1)CC2 (racemic) [Example 20-(Rac), (Rac)-N-3-isoxazolyl-2-oxo-1-(2,3′,4′-trifluoro-5-methoxy-4-biphenylyl)-1,5,7,8-tetrahydro-1,6-naphthyridine-6(2H)-sulfonamide]
91.3 nM	14.3 nM	17.8 nM	COc1cc(-c2ccc(C)c(F)c2)c(F)cc1-n1c2c(ccc1=O)CN(S(=O)(=O)Nc1ccon1)CC2 (racemic) [Example 21-(Rac), (Rac)-1-(2,3′-difluoro-5-methoxy-4′-methyl-4-biphenylyl)-N-3-isoxazolyl-2-oxo-1,5,7,8-tetrahydro-1,6-naphthyridine-6(2H)-sulfonamide]
25.4 nM	7 nM	6.8 nM	COc1cc(-c2cc(C(F)(F)F)cnc2OC)c(F)cc1-n1c2c(ccc1=O)CN(S(=O)(=O)Nc1ccon1)CC2 (racemic) [Example 23, (Rac)-1-(5-fluoro-2-methoxy-4-(2-methoxy-5-(trifluoromethyl)-3-pyridinyl)phenyl)-N-3-isoxazolyl-2-oxo-1,5,7,8-tetrahydro-1,6-naphthyridine-6(2H)-sulfonamide]
73.7 nM	6.7 nM	–	COc1cc(-c2ccc(Cl)c(C)c2)c(F)cc1-n1c2c(ccc1=O)CN(S(=O)(=O)Nc1ccon1)CC2 (racemic) [Example 24-(Rac), (Rac)-1-(4′-chloro-2-fluoro-5-methoxy-3′-methyl-4-biphenylyl)-N-3-isoxazolyl-2-oxo-1,5,7,8-tetrahydro-1,6-naphthyridine-6(2H)-sulfonamide]
176 nM	7.2 nM	–	COc1cc(-c2cc(F)cc(F)c2)c(F)cc1-n1c2c(ccc1=O)CN(S(=O)(=O)Nc1ccon1)CC2 (single isomer, unassigned) [Example 25-P, P-N-3-isoxazolyl-2-oxo-1-(2,3′,5′-trifluoro-5-methoxy-4-biphenylyl)-1,5,7,8-tetrahydro-1,6-naphthyridine-6(2H)-sulfonamide]
–	8.3 nM	17.1 nM	COc1cc(-c2cc(F)cc(C(F)F)c2)c(F)cc1-n1c2c(ccc1=O)CN(S(=O)(=O)Nc1cccnn1)CC2 [Example 84, P-1-(3′-(difluoromethyl)-2,5′-difluoro-5-methoxy-[1,1′-biphenyl]-4-yl)-2-oxo-N-(pyridazin-3-yl)-1,2,7,8-tetrahydro-1,6-naphthyridine-6(5H)-sulfonamide]
–	4.3 nM	17.4 nM	COc1cc(-c2ccc(F)c(C(F)F)c2)c(F)cc1-n1c2c(ccc1=O)CN(S(=O)(=O)Nc1cccnn1)CC2 [Example 85, P-1-(3′-(difluoromethyl)-2,4′-difluoro-5-methoxy-[1,1′-biphenyl]-4-yl)-2-oxo-N-(pyridazin-3-yl)-1,2,7,8-tetrahydro-1,6-naphthyridine-6(5H)-sulfonamide]
–	7.1 nM	14.3 nM	COc1cc(-c2cc(F)c(F)c(C(F)F)c2)c(F)cc1-n1c2c(ccc1=O)CN(S(=O)(=O)Nc1cccnn1)CC2 [Example 86, P-1-(3′-(difluoromethyl)-2,4′,5′-trifluoro-5-methoxy-[1,1′-biphenyl]-4-yl)-2-oxo-N-(pyridazin-3-yl)-1,2,7,8-tetrahydro-1,6-naphthyridine-6(5H)-sulfonamide]
–	12.4 nM	19 nM	COc1cc(-c2ccc(C(F)F)c(F)c2)c(F)cc1-n1c2c(ccc1=O)CN(S(=O)(=O)Nc1cccnn1)CC2 [Example 87, P-1-(4′-(difluoromethyl)-2,3′-difluoro-5-methoxy-[1,1′-biphenyl]-4-yl)-2-oxo-N-(pyridazin-3-yl)-1,2,7,8-tetrahydro-1,6-naphthyridine-6(5H)-sulfonamide]
–	18.7 nM	33.5 nM	COc1cc(CCC(F)(F)F)c(F)cc1-n1c2c(ccc1=O)CN(S(=O)(=O)Nc1ccon1)CC2 [Example 94, P-1-(5-fluoro-2-methoxy-4-(3,3,3-trifluoropropyl)phenyl)-N-(isoxazol-3-yl)-2-oxo-1,2,7,8-tetrahydro-1,6-naphthyridine-6(5H)-sulfonamide]
–	21 nM	36.5 nM	COc1cc(CCC(F)(F)F)c(F)cc1-n1c2c(ccc1=O)CN(S(=O)(=O)Nc1cccnn1)CC2 [Example 95, P-1-(5-fluoro-2-methoxy-4-(3,3,3-trifluoropropyl)phenyl)-2-oxo-N-(pyridazin-3-yl)-1,2,7,8-tetrahydro-1,6-naphthyridine-6(5H)-sulfonamide]
